{"source": "patent US20220187281A1", "about": "“METHODS AND SYSTEMS FOR EVALUATION OF CELL SAMPLES” (priority 2019, published 2022)", "key": {"[1]": {"system": "CN0458 colon tumor slices", "experiment": "Cell-Titer Blue viability of CN0458 colon PDX tumor slices", "format": "cell-based, human", "details": "100 uM"}, "[2]": {"system": "colorectal cancer PDX model (mCRC)", "experiment": "Cell-Titer Blue viability of colorectal cancer PDX model (FIG. 2E)", "format": "cell-based, human", "details": "oxaliplatin 0.1, 1, 10 μM; 5-FU 1, 10, 100 μM; days 0, 4, 8 in vitro"}, "BR0851 TNBC PDX": {"system": "BR0851 TNBC PDX", "details": "JAX PDX Resource data; cited from earlier work"}, "BR0851 TNBC PDX tumor": {"system": "BR0851 TNBC PDX tumor", "experiment": "Cell-Titer Blue viability of BR0851 TNBC PDX tumor slices", "format": "cell-based, human", "details": "for sensitivity by viability assay readings: 12 days ex vivo compared to 0 div; for response profile of tumor slices: by 13 div, long-term exposure"}, "BR1126 TNBC PDX": {"system": "BR1126 TNBC PDX", "details": "JAX PDX Resource data; cited from earlier work"}, "[3]": {"system": "patient tumor tissue samples from two locations", "experiment": "Viability of samples from two locations of the same patient tumor (Example 6)", "format": "cell-based", "details": "0, 3, 5, 9, and 12 days in vitro", "description": "Tumor tissue samples from two locations of the same patient tumor are obtained and cultured as described in Example 1. Each sample is treated with Cisplatin (Cis), Doxorubicin (Dox) or Paclitaxel (Taxol). Viability measurements are obtained at 0, 3, 5, 9, and 12 days in vitro."}, "BR0851 TNBC PDX slices": {"system": "BR0851 TNBC PDX slices", "experiment": "Immunohistochemical analysis of BR0851 TNBC PDX slices", "format": "cell-based, human", "details": "BR0851 slices at 13 div; for overall cell numbers (immunohistochemical analysis): compared with vehicle"}, "BR1126 TNBC PDX tumor": {"system": "BR1126 TNBC PDX tumor", "experiment": "Cell-Titer Blue viability of BR1126 TNBC PDX tumor slices", "format": "cell-based, human"}, "[4]": {"system": "human metastatic colorectal cancer (mCRC) biopsy core", "experiment": "CTB viability of human mCRC biopsy core slices in long-term culture (therapy resistance)", "format": "cell-based", "details": "encorafenib 100 nM, binimetinib 100 nM; 16 days in culture (days 16 and 20)", "experimental": "(§1) 5 μl of Cell-Titer Blue (CTB) (Promega) substrate was added to 1 ml of culture medium and incubated at 37° C. for 15 or 24 hr. 100 μl of media was removed from each sample culture and fluorescence was measured (Ex560/Em590) using Enspire® multimode plate reader (Perkin Elmer®). Background fluorescence of the culture medium was subtracted from each sample reading at each day Immediately following the CTB reading, media was changed and drugs were added to fresh media to continue culture. At desired time points, additional viability measurements were made to collect longitudinal data and conditioned media is collected and analyzed. After the final time point, tissues were fixed in formalin and embedded in paraffin or OCT for histological analyses or lysed in RIPA buffer or Trizol and conditioned media is frozen. To account for variability in tissue composition of each slice punch, viability readings of each sample was normalized to the respective CTB reading immediately after slicing (0 days ex vivo: 1 dex CTB reading) and relative fold changes in CTB readings at each time point were analyzed.\n(§2) Samples were precision cut into […] thick slices using a Vibratome VT1200S (Leica Microsystems). […]"}, "CNSTG colon tumor slices": {"system": "CNSTG colon tumor slices", "experiment": "Cell-Titer Blue viability of CNSTG colon PDX tumor slices", "format": "cell-based, human", "details": "100 uM"}, "[5]": {"system": "human metastatic colorectal cancer (mCRC) biopsy cores", "experiment": "CTB viability of mCRC biopsy core slices from two patients (immunotherapy response)", "format": "cell-based", "details": "nivolumab 10 μg/mL, encorafenib 100 nM, cetuximab 10 μg/mL; early and late time points", "experimental": "as §1, §2"}, "[6]": {"details": "compared with vehicle or Cisplatin treated tissues"}}, "data": [{"compound": "O=c1[nH]cc(F)c(=O)[nH]1", "note": "[5-FU, 5-fluorouracil]", "values": [{"measurement": "suppression of viability of CN0458 slices compared with CNSTG slices", "setting": "[1]", "result": "more effective"}, {"measurement": "cell viability response", "setting": "[2]", "result": "no reduction in cell viability"}]}, {"compound": "N.N.[Cl][Pt][Cl]", "note": "[Cisplatin]", "values": [{"measurement": "in vivo treatment response", "setting": "BR0851 TNBC PDX", "result": "no response"}, {"measurement": "sensitivity by viability assay readings", "setting": "BR0851 TNBC PDX tumor", "result": "insensitive"}, {"measurement": "response profile of tumor slices", "setting": "BR0851 TNBC PDX tumor", "result": "progressive disease profile"}, {"measurement": "in vivo treatment response", "setting": "BR1126 TNBC PDX", "result": "partial response"}, {"measurement": "difference between viability measurements of the two tumor locations", "setting": "[3]", "result": "significant difference"}, {"measurement": "overall cell numbers (immunohistochemical analysis)", "setting": "BR0851 TNBC PDX slices", "result": "similar"}, {"measurement": "ex vivo treatment response", "setting": "BR1126 TNBC PDX tumor", "result": "partial response"}, {"measurement": "sensitivity by viability assay readings", "setting": "BR1126 TNBC PDX tumor", "result": "sensitive"}]}, {"compound": "COc1cccc2c1C(=O)c1c(O)c3c(c(O)c1C2=O)C[C@@](O)(C(=O)CO)C[C@@H]3O[C@H]1C[C@H](N)[C@H](O)[C@H](C)O1", "note": "[Doxorubicin]", "values": [{"measurement": "sensitivity by viability assay readings", "setting": "BR0851 TNBC PDX tumor", "result": "sensitive"}, {"measurement": "response profile of tumor slices", "setting": "BR0851 TNBC PDX tumor", "result": "complete response"}, {"measurement": "difference between viability measurements of the two tumor locations", "setting": "[3]", "result": "significant difference"}, {"measurement": "overall cell numbers (immunohistochemical analysis)", "setting": "BR0851 TNBC PDX slices", "result": "overall reduction in cell numbers"}, {"measurement": "necrotic regions", "setting": "BR0851 TNBC PDX slices; [6]", "result": "increase"}, {"measurement": "pyknotic and abnormal nuclei", "setting": "BR0851 TNBC PDX slices; [6]", "result": "increase"}]}, {"compound": "CC(=O)O[C@H]1C(=O)[C@@]2(C)[C@H]([C@H](OC(=O)c3ccccc3)[C@]3(O)C[C@H](OC(=O)[C@H](O)[C@@H](NC(=O)c4ccccc4)c4ccccc4)C(C)=C1C3(C)C)[C@]1(OC(C)=O)CO[C@@H]1C[C@@H]2O", "note": "[Paclitaxel]", "values": [{"measurement": "difference between viability measurements of the two tumor locations", "setting": "[3]", "result": "significant difference"}, {"measurement": "sensitivity by viability assay readings", "setting": "BR1126 TNBC PDX tumor", "result": "sensitive"}]}, {"compound": "Cn1cnc2c(F)c(Nc3ccc(Br)cc3F)c(C(=O)NOCCO)cc21", "note": "[binimetinib]", "values": [{"measurement": "therapy resistance in long-term culture (viability)", "setting": "[4]", "result": "suppressed"}]}, {"compound": "COC(=O)N[C@@H](C)CNc1nccc(-c2cn(C(C)C)nc2-c2cc(Cl)cc(NS(C)(=O)=O)c2F)n1", "note": "[encorafenib]", "values": [{"measurement": "therapy resistance in long-term culture (viability)", "setting": "[4]", "result": "emergence of encorafenib resistance"}]}, {"compound": "O=C1[O][Pt]2([NH][C@@H]3CCCC[C@H]3[NH]2)[O]C1=O", "note": "[oxaliplatin]", "values": [{"measurement": "suppression of viability of CNSTG slices compared with CN0458 slices", "setting": "CNSTG colon tumor slices", "result": "more effective"}, {"measurement": "cell viability response", "setting": "[2]", "result": "dose and time-dependent response"}]}, {"compound": "nivolumab", "values": [{"measurement": "sensitivity of the two mCRC patient samples (viability)", "setting": "[5]", "result": "differential sensitivity"}]}]}
